Measured values published in ChEMBL document CHEMBL3399963, “Design, synthesis and preliminary biological evaluation of C-8 substituted guanine derivatives as small molecular inhibitors of FGFRs” (Bioorg Med Chem Lett, 2015).
pIC50: −log10 of the molar value.

How the values were obtained:
[1] = target: T1, Fibroblast growth factor receptor 4 (Homo sapiens, UniProt P22455); experiment: Inhibition of FGFR4 (unknown origin)
[2] = target: T1, Fibroblast growth factor receptor 4; experiment: Inhibition of FGFR4 (unknown origin) after 90 mins by TR-FRET assay
A549 = experiment: Cytotoxicity against human A549 cells after 72 hrs by MTT assay; details: A549, 72 h
[3] = Cytotoxicity against human HeLa 229 cells after 72 hrs by MTT assay; details: HeLa 229, 72 h
[4] = Cytotoxicity against mouse B16F10 cells after 72 hrs by MTT assay; details: B16-F10, 72 h
[5] = Cytotoxicity against human HL7702 cells after 72 hrs by MTT assay; details: L02, 72 h
[6] = target: Fibroblast growth factor receptor 3 (Homo sapiens, UniProt P22607); experiment: Inhibition of FGFR3 (unknown origin) after 90 mins by TR-FRET assay
Fibroblast growth factor receptor 3, sequence (P22607 whole entry): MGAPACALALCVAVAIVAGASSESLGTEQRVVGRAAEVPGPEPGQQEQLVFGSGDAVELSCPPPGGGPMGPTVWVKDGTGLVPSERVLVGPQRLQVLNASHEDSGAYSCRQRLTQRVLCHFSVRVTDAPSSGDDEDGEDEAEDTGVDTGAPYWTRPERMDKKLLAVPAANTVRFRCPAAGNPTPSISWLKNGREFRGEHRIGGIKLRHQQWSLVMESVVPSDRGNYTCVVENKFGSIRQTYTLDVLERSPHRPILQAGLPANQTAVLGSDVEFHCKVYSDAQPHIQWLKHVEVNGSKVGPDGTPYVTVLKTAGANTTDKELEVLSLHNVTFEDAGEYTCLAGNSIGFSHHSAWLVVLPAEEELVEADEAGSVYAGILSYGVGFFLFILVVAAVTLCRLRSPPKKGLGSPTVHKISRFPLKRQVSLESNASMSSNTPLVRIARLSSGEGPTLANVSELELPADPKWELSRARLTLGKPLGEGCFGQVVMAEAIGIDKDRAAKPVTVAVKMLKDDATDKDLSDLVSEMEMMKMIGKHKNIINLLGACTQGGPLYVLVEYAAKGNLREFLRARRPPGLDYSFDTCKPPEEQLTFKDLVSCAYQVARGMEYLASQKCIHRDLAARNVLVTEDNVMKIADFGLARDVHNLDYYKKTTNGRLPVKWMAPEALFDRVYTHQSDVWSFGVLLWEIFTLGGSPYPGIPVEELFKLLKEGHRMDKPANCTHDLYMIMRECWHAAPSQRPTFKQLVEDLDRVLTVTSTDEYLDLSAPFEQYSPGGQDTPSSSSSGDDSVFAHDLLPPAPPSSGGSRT

[7] = Cytotoxicity against human HL7702 cells assessed as cell survival at 2 to 10 uM after 72 hrs by MTT assay; type: cell-based; details: l02, 72 h
[8] = target: Fibroblast growth factor receptor 2 (Homo sapiens, UniProt P21802); experiment: Inhibition of FGFR2 (unknown origin) after 90 mins by TR-FRET assay
Fibroblast growth factor receptor 2, sequence (P21802 whole entry): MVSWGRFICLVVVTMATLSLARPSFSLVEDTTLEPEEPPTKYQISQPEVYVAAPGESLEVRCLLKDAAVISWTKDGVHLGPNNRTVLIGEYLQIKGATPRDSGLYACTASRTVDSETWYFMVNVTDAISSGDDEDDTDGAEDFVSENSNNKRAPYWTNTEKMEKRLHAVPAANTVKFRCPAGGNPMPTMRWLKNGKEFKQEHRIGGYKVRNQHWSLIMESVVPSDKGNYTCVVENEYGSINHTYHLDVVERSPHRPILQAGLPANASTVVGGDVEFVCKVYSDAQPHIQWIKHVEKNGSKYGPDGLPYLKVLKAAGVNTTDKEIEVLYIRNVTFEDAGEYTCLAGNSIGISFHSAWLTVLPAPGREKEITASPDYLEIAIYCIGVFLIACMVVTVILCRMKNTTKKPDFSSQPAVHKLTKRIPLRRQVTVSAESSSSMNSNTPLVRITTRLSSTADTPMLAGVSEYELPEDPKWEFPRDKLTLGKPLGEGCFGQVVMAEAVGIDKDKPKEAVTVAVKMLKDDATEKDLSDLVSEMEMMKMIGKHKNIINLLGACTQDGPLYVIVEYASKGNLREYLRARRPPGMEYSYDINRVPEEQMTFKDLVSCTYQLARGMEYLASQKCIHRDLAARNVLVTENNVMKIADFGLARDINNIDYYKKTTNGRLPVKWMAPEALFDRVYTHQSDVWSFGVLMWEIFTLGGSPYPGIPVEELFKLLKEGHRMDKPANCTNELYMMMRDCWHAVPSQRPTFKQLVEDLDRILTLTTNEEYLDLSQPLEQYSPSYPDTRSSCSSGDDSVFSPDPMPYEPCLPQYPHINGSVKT

[9] = target: Fibroblast growth factor receptor 1 (Homo sapiens, UniProt P11362)
Fibroblast growth factor receptor 1, sequence (P11362 whole entry): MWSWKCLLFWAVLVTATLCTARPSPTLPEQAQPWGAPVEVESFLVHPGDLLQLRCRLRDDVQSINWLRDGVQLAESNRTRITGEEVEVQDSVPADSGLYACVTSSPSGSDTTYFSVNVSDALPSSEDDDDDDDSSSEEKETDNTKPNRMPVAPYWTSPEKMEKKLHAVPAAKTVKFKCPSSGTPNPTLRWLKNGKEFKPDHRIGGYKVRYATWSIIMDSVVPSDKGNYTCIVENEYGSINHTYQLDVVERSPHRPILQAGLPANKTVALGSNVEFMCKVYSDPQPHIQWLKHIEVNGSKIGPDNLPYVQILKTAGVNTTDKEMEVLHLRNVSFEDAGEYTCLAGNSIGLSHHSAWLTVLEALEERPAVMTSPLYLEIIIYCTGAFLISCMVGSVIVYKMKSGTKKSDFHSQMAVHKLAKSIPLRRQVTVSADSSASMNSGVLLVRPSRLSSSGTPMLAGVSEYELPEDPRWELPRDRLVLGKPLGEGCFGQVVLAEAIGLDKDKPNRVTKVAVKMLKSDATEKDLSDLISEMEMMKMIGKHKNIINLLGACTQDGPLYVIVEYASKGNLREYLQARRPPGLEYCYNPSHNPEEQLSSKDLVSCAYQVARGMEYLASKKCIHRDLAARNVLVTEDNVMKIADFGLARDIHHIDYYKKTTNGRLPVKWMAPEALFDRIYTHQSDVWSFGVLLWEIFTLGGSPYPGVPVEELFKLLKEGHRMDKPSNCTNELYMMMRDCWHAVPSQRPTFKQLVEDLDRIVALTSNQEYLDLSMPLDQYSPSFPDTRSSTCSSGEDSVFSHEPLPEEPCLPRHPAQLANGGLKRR
Description: Inhibition of FGFR1 (unknown origin) after 90 mins by TR-FRET assay

T1 sequence (P22455 whole entry): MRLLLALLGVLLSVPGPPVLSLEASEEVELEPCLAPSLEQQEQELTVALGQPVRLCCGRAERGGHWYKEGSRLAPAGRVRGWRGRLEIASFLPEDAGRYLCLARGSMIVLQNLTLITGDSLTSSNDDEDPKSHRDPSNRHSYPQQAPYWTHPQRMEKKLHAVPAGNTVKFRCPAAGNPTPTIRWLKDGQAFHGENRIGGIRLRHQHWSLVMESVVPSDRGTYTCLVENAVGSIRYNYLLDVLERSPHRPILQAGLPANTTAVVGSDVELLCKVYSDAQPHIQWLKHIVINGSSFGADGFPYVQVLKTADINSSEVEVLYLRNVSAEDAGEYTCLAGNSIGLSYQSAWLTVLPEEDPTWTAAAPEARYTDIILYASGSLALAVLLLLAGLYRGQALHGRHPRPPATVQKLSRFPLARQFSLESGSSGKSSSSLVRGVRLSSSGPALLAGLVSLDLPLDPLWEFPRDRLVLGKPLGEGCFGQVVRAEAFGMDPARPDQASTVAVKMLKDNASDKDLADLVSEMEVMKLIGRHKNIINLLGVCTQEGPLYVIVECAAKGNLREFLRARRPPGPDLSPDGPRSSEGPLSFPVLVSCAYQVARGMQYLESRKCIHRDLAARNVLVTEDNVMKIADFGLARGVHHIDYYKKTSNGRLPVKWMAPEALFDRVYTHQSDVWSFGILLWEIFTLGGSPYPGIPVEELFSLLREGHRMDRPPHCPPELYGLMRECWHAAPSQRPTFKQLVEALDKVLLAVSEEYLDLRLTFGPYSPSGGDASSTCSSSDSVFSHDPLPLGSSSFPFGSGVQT

| Structure (SMILES) | pIC50 [1] | pIC50 [2] | pIC50 (A549) | pIC50 [3] | pIC50 [4] | pIC50 [5] | pIC50 [6] | Activity [7] | pIC50 [8] | pIC50 [9] |
| --- | --- | --- | --- | --- | --- | --- | --- | --- | --- | --- |
| CN1CCN(c2ccc(-c3nc4c(N5CCN(CC(=O)Nc6nccs6)CC5)c(Cl)cnc4[nH]3)cc2)CC1 | 7.70 | 6.89 | 5.59 | 5.36 | 5.79 | 4.56 |  |  |  |  |
| Nc1nc(O)c2nc(-c3ccccc3)[nH]c2n1 |  | < 4.70 |  |  |  |  | < 4.70 |  |  |  |
| COc1ccccc1-c1nc2c(O)nc(N)nc2[nH]1 |  | < 4.70 |  |  |  |  | < 4.70 |  |  |  |
| Cc1ccc(-c2nc3c(O)nc(N)nc3[nH]2)c(C)c1 |  | < 4.70 |  |  |  |  | < 4.70 |  |  |  |
| Nc1nc(O)c2nc(-c3c[nH]c4ccccc34)[nH]c2n1 |  | < 4.70 | 4.98 | 4.81 | 4.99 | 4.33 | < 4.70 |  |  |  |
| CC(=O)Nc1nc(O)c2nc(-c3ccccc3)[nH]c2n1 |  | < 4.70 |  |  |  |  | < 4.70 |  |  |  |
| COc1ccccc1-c1nc2c(O)nc(NC(C)=O)nc2[nH]1 |  | < 4.70 |  |  |  |  | < 4.70 |  |  |  |
| COc1cccc(-c2nc3c(O)nc(NC(C)=O)nc3[nH]2)c1OC |  | < 4.70 | 4.92 | 4.98 | 4.97 | 4.30 | < 4.70 |  |  |  |
| CC(=O)Nc1nc(O)c2nc(-c3ccc(C)cc3C)[nH]c2n1 |  | < 4.70 |  |  |  |  |  |  |  |  |
| CC(=O)Nc1nc(O)c2nc(-c3c[nH]c4ccccc34)[nH]c2n1 |  | < 4.70 | 5.03 | 4.97 | 5.05 | 4.32 |  |  |  |  |
| CC(=O)Nc1nc(O)c2nc(-c3c[nH]c4cccc(Br)c34)[nH]c2n1 |  | < 4.70 | 5.08 | 5.01 | 5.18 | 4.33 |  | Non-toxic |  |  |
| CC(C)(C)NC(=O)Nc1nc2nc(N)ncc2cc1-c1c(Cl)cccc1Cl |  | 6.25 | 5.36 | 5.41 | 5.58 | 4.55 | 6.54 |  | 6.89 | 6.96 |
| COc1cc(CCc2cc(NC(=O)c3ccc(N4C[C@@H](C)N[C@@H](C)C4)cc3)n[nH]2)cc(OC)c1 [FEXAGRATINIB] |  |  | 7.21 | 6.85 | 7.29 | 4.74 |  | Non-toxic |  |  |
